Data as given in PubChem BioAssay (NCI).
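Following 48 hours of exposure in 96-well plates, responses at five concentrations were used to interpolate endpoints linearly. TGI: concentration producing complete growth inhibition.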

Assays:
Experiment in all cases: NCI anticancer screen, dose series, 48 h
MDA-MB-231 breast = system: MDA-MB-231 breast
COLO 205 colon = system: COLO 205 colon
SF-539 CNS = system: SF-539 CNS
HOP-62 NSCLC = system: HOP-62 NSCLC
HCC-2998 colon = system: HCC-2998 colon
NCI/ADR-RES ovarian = system: NCI/ADR-RES ovarian
SF-295 CNS = system: SF-295 CNS
SW-620 colon = system: SW-620 colon
SK-MEL-5 melanoma = system: SK-MEL-5 melanoma
786-0 renal = system: 786-0 renal
UACC-257 melanoma = system: UACC-257 melanoma
OVCAR-8 ovarian = system: OVCAR-8 ovarian
DU-145 prostate = system: DU-145 prostate
SF-268 CNS = system: SF-268 CNS
MOLT-4 leukemia = system: MOLT-4 leukemia
HT29 colon = system: HT29 colon
ACHN renal = system: ACHN renal
TK-10 renal = system: TK-10 renal
HL-60(TB) leukemia = system: HL-60(TB) leukemia
A549 NSCLC = system: A549 NSCLC
MALME-3M melanoma = system: MALME-3M melanoma
HCT-116 colon = system: HCT-116 colon
A498 renal = system: A498 renal
MDA-MB-435 = system: MDA-MB-435
HOP-92 NSCLC = system: HOP-92 NSCLC
SK-MEL-28 melanoma = system: SK-MEL-28 melanoma
PC-3 prostate = system: PC-3 prostate
MDA-N = system: MDA-N
SK-OV-3 ovarian = system: SK-OV-3 ovarian
OVCAR-3 ovarian = system: OVCAR-3 ovarian
T-47D breast = system: T-47D breast
SNB-19 CNS = system: SNB-19 CNS
RXF 393 renal = system: RXF 393 renal
CAKI-1 renal = system: CAKI-1 renal
EKVX NSCLC = system: EKVX NSCLC
U251 CNS = system: U251 CNS
HCT-15 colon = system: HCT-15 colon
SN12C renal = system: SN12C renal
LOX IMVI melanoma = system: LOX IMVI melanoma
M14 melanoma = system: M14 melanoma
OVCAR-5 ovarian = system: OVCAR-5 ovarian
BT-549 breast = system: BT-549 breast
RPMI-8226 leukemia = system: RPMI-8226 leukemia
NCI-H23 lung = system: NCI-H23 lung
SK-MEL-2 melanoma = system: SK-MEL-2 melanoma
NCI-H522 lung = system: NCI-H522 lung
HS 578T breast = system: HS 578T breast
K-562 leukemia = system: K-562 leukemia
UACC-62 melanoma = system: UACC-62 melanoma
UO-31 renal = system: UO-31 renal
SNB-75 CNS = system: SNB-75 CNS
KM12 colon = system: KM12 colon
CCRF-CEM leukemia = system: CCRF-CEM leukemia
SR leukemia = system: SR leukemia
NCI-H460 lung = system: NCI-H460 lung
MCF7 breast = system: MCF7 breast
IGROV1 ovarian = system: IGROV1 ovarian
OVCAR-4 ovarian = system: OVCAR-4 ovarian
NCI-H226 lung = system: NCI-H226 lung

COc1ccc(C(CC2(c3ccc(OC)cc3)SCCCS2)NC(C)=O)cc1 (stereo not given)
TGI (MDA-MB-231 breast): > 100 µM
TGI (COLO 205 colon): 56.7 µM
TGI (SF-539 CNS): > 100 µM
TGI (HOP-62 NSCLC): > 100 µM
TGI (HCC-2998 colon): > 100 µM
TGI (NCI/ADR-RES ovarian): 73.4 µM
TGI (SF-295 CNS): > 100 µM
TGI (SW-620 colon): > 100 µM
TGI (SK-MEL-5 melanoma): 37.7 µM
TGI (786-0 renal): > 100 µM
TGI (UACC-257 melanoma): 70.2 µM
TGI (OVCAR-8 ovarian): > 100 µM
TGI (DU-145 prostate): > 100 µM
TGI (SF-268 CNS): > 100 µM
TGI (MOLT-4 leukemia): 84.3 µM
TGI (HT29 colon): > 100 µM
TGI (ACHN renal): > 100 µM
TGI (TK-10 renal): > 100 µM
TGI (HL-60(TB) leukemia): > 100 µM
TGI (A549 NSCLC): > 100 µM
TGI (MALME-3M melanoma): > 100 µM
TGI (HCT-116 colon): > 100 µM
TGI (A498 renal): > 100 µM
TGI (MDA-MB-435): > 100 µM
TGI (HOP-92 NSCLC): > 100 µM
TGI (SK-MEL-28 melanoma): > 100 µM
TGI (PC-3 prostate): 69 µM
TGI (MDA-N): > 100 µM
TGI (SK-OV-3 ovarian): > 100 µM
TGI (OVCAR-3 ovarian): > 100 µM
TGI (T-47D breast): 66.5 µM
TGI (SNB-19 CNS): > 100 µM
TGI (RXF 393 renal): > 100 µM
TGI (CAKI-1 renal): > 100 µM
TGI (EKVX NSCLC): > 100 µM
TGI (U251 CNS): > 100 µM
TGI (HCT-15 colon): > 100 µM
TGI (SN12C renal): 96.8 µM
TGI (LOX IMVI melanoma): > 100 µM
TGI (M14 melanoma): > 100 µM
TGI (OVCAR-5 ovarian): > 100 µM
TGI (BT-549 breast): > 100 µM
TGI (RPMI-8226 leukemia): > 100 µM
TGI (NCI-H23 lung): > 100 µM
TGI (SK-MEL-2 melanoma): > 100 µM
TGI (NCI-H522 lung): > 100 µM
TGI (HS 578T breast): > 100 µM
TGI (K-562 leukemia): > 100 µM
TGI (UACC-62 melanoma): > 100 µM
TGI (UO-31 renal): > 100 µM
TGI (SNB-75 CNS): > 100 µM
TGI (KM12 colon): > 100 µM
TGI (CCRF-CEM leukemia): > 100 µM
TGI (SR leukemia): > 100 µM
TGI (NCI-H460 lung): > 100 µM
TGI (MCF7 breast): > 100 µM
TGI (IGROV1 ovarian): > 100 µM

CNC(=O)C(C)NC(=O)C(Cc1ccccc1)NC(=O)c1ccccc1 (stereo not given)
TGI (MDA-MB-231 breast): > 100 µM
TGI (COLO 205 colon): > 100 µM
TGI (SF-539 CNS): > 100 µM
TGI (HOP-62 NSCLC): > 100 µM
TGI (HCC-2998 colon): > 100 µM
TGI (OVCAR-4 ovarian): > 100 µM
TGI (NCI/ADR-RES ovarian): > 100 µM
TGI (SF-295 CNS): > 100 µM
TGI (SW-620 colon): > 100 µM
TGI (SK-MEL-5 melanoma): > 100 µM
TGI (786-0 renal): > 100 µM
TGI (UACC-257 melanoma): > 100 µM
TGI (OVCAR-8 ovarian): > 100 µM
TGI (DU-145 prostate): > 100 µM
TGI (SF-268 CNS): > 100 µM
TGI (MOLT-4 leukemia): > 100 µM
TGI (HT29 colon): > 100 µM
TGI (ACHN renal): > 100 µM
TGI (TK-10 renal): > 100 µM
TGI (HL-60(TB) leukemia): > 100 µM
TGI (A549 NSCLC): > 100 µM
TGI (MALME-3M melanoma): > 100 µM
TGI (HCT-116 colon): > 100 µM
TGI (A498 renal): > 100 µM
TGI (MDA-MB-435): > 100 µM
TGI (HOP-92 NSCLC): > 100 µM
TGI (SK-MEL-28 melanoma): > 100 µM
TGI (PC-3 prostate): > 100 µM
TGI (MDA-N): > 100 µM
TGI (SK-OV-3 ovarian): > 100 µM
TGI (OVCAR-3 ovarian): > 100 µM
TGI (T-47D breast): > 100 µM
TGI (SNB-19 CNS): > 100 µM
TGI (RXF 393 renal): > 100 µM
TGI (CAKI-1 renal): > 100 µM
TGI (EKVX NSCLC): > 100 µM
TGI (U251 CNS): > 100 µM
TGI (HCT-15 colon): > 100 µM
TGI (SN12C renal): > 100 µM
TGI (LOX IMVI melanoma): > 100 µM
TGI (M14 melanoma): > 100 µM
TGI (OVCAR-5 ovarian): > 100 µM
TGI (BT-549 breast): > 100 µM
TGI (RPMI-8226 leukemia): > 100 µM
TGI (NCI-H226 lung): > 100 µM
TGI (NCI-H23 lung): > 100 µM
TGI (SK-MEL-2 melanoma): > 100 µM
TGI (NCI-H522 lung): > 100 µM
TGI (HS 578T breast): > 100 µM
TGI (K-562 leukemia): > 100 µM
TGI (UACC-62 melanoma): > 100 µM
TGI (UO-31 renal): > 100 µM
TGI (SNB-75 CNS): > 100 µM
TGI (KM12 colon): > 100 µM
TGI (CCRF-CEM leukemia): > 100 µM
TGI (SR leukemia): > 100 µM
TGI (NCI-H460 lung): > 100 µM
TGI (MCF7 breast): > 100 µM
TGI (IGROV1 ovarian): > 100 µM

Oc1c(Br)cc(/C=C/c2ccnc(/C=C/c3cc(Br)c(O)c(Br)c3)c2)cc1Br
TGI (MDA-MB-231 breast): 59.4 µM
TGI (COLO 205 colon): 59.9 µM
TGI (SF-539 CNS): 33 µM
TGI (HOP-62 NSCLC): > 100 µM
TGI (HCC-2998 colon): > 100 µM
TGI (OVCAR-4 ovarian): 87.2 µM
TGI (NCI/ADR-RES ovarian): 92.6 µM
TGI (SF-295 CNS): > 100 µM
TGI (SW-620 colon): > 100 µM
TGI (SK-MEL-5 melanoma): 41 µM
TGI (786-0 renal): 35.3 µM
TGI (UACC-257 melanoma): 66.7 µM
TGI (OVCAR-8 ovarian): 83.9 µM
TGI (DU-145 prostate): 39.1 µM
TGI (SF-268 CNS): > 100 µM
TGI (MOLT-4 leukemia): 45.8 µM
TGI (HT29 colon): 40.2 µM
TGI (ACHN renal): > 100 µM
TGI (TK-10 renal): 75 µM
TGI (HL-60(TB) leukemia): 60.6 µM
TGI (A549 NSCLC): 77 µM
TGI (HCT-116 colon): 30.7 µM
TGI (A498 renal): 54.4 µM
TGI (MDA-MB-435): 63 µM
TGI (HOP-92 NSCLC): > 100 µM
TGI (SK-MEL-28 melanoma): > 100 µM
TGI (PC-3 prostate): 39 µM
TGI (MDA-N): 91.3 µM
TGI (SK-OV-3 ovarian): > 100 µM
TGI (OVCAR-3 ovarian): 53.1 µM
TGI (T-47D breast): 52.1 µM
TGI (SNB-19 CNS): > 100 µM
TGI (CAKI-1 renal): > 100 µM
TGI (EKVX NSCLC): 56.4 µM
TGI (U251 CNS): 30.8 µM
TGI (HCT-15 colon): 73 µM
TGI (SN12C renal): > 100 µM
TGI (LOX IMVI melanoma): > 100 µM
TGI (M14 melanoma): 54.9 µM
TGI (OVCAR-5 ovarian): 55.3 µM
TGI (BT-549 breast): > 100 µM
TGI (RPMI-8226 leukemia): 51.6 µM
TGI (SK-MEL-2 melanoma): 34.4 µM
TGI (HS 578T breast): > 100 µM
TGI (K-562 leukemia): 60.1 µM
TGI (UACC-62 melanoma): 73.8 µM
TGI (UO-31 renal): 35.4 µM
TGI (SNB-75 CNS): 58.5 µM
TGI (KM12 colon): 38.7 µM
TGI (CCRF-CEM leukemia): > 100 µM
TGI (SR leukemia): 45.9 µM
TGI (NCI-H460 lung): > 100 µM
TGI (MCF7 breast): 60.3 µM
TGI (IGROV1 ovarian): > 100 µM
